Measurements: patent US11738064B2, “Pharmaceutical composition for preventing and treating eye diseases, containing as active ingredient, fusion protein in which tissue-penetrating peptide and anti-vascular endothelial growth factor preparation are fused” (ILDONG PHARM CO., LTD., priority 2015, dated 2023)

What was measured:
[1] = cited from earlier work
[2] = Ex-vivo ocular penetration model, extracted eyeballs immersed in FITC-conjugated protein; assay type: in vitro ADME, C57BL/6 mouse; conditions: confocal microscope; FIG. 8E
Experimental: The eyeballs were fixed at 4° C. for 4 hours using Davidson's solution (glacial acetic acid:ethyl alcohol:neutralized formalin:distilled water=1:3:2:3), and then the anterior tissue of the conjunctiva was partially cut with scissors, and the retinal metaplasia was minimized in a paraffin slide preparation step. After overnight fixation at 4° C. using 10% (v/v) formalin solution, moisture was removed from the tissues by increasing the concentration of alcohol from low to high concentration using an automatic infiltration machine, followed by transparency with xylene and then paraffin penetration. The paraffin penetration-completed tissue was placed in a base mold to make a paraffin block, and 4 sections were prepared using a microtome. The paraffin sections were unfolded to be attached to slides pre-coated with albumin, poly-L-lysine, and saline in a floating constant-temperature water bath. The tissue slides were deparaffinized and then directly mounted, and then FITC was observed using a confocal microscope to investigate the ocular tissue penetration and distribution.
Thereafter, while unconjugated FITC was removed using PD-10 desalting column, the buffer was changed with PBS, and then the purified product was quantified, and used as a sample for efficacy evaluation.

[3] = tested on: corneal neovascularization; experiment: Corneal neovascularization resistance model; assay type: in vivo, C57BL/6 mice; conditions: eye drops for 10 days from 10 days after alkaline burn; FIG. 7B
Experimental: The 6-week old female C57BL/6 mice were used. After anesthesia (Zoletil 40 mg/kg+Rompun 5 mg/kg, IP), the NaOH filter paper was placed on the left eye cornea to induce an alkaline burn for 30 seconds, followed by sufficient washing with 40 ml of PBS, thereby constructing corneal neovascularization animal models. […] Each drug was administered through eye drops at a concentration of 5 mg/ml with 5 μl each time, four times a day for 5 days. After the completion of the administration, the eyeballs were extracted, immersed and fixed in 4% paraformaldehyde solution for one hour, and washed with PBS, and then the cornea was isolated using a dissecting microscope. The isolated cornea was additionally fixed in a 4% paraformaldehyde solution for 12 hours. The fixed cornea was washed with PBS, and subjected to reaction in a blocking buffer (PBS, 0.3% BSA, 0.1% Triton X100) at room temperature for 2 hours. A primary antibody (BD Pharmingen) specific to PECAM-1 (CD31) as a vascular endothelial marker and a primary antibody (Millipore) specific to NG-2 as a pericyte marker were reacted overnight in a refrigerator, and secondary fluorescent antibodies (Alexa Fluor488, Alexa Fluor594, Life Technologies) were reacted at room temperature for 4 hours for tissue staining. […]

[4] = tested on: choroidal neovascularization; experiment: Laser-induced choroidal neovascularization (CNV) model; assay type: in vivo, Brown Norway (BN) rats; conditions: 100 μg/eye intraocular, 10 days after administration; FIG. 10B
Experimental: Seven-week old male Brown Norway (BN) rats (SLC Japan, Tokyo, Japan) were acclimated for one week, and then anesthetized by peritoneal injection of pentobarbital sodium (Hanlim Pharm, 25 mg/kg). Thereafter, the pupil was dilated with 1% tropicamide eye drops, and then six photocoagulation spots were formed around the optic nerve head using a diode laser (wavelength, 532 nm; diameter, 100 μm; power, 150 mW; time period, 0.1 sec). The destruction of Bruch's membrane was verified by the formation of characteristic bubbles. The eyeballs with hemorrhage or no bubbles were excluded from the subsequent experimental procedures. Drugs were administered intraocularly at concentrations appropriate for respective groups using Hamilton syringe (Hamilton, USA). The same amount of vehicle was administered to the CNV group, and 100 μg/eye of ranibizumab was administered as control drug. Subjects with surgical damage caused by drug administration or subjects with lens opacities or the like were excluded from subsequent experimental procedures.
The degree of choroidal neovascularization was evaluated 10 days after drug administration. The eyeball of each rat was extracted, and then incised at a region adjacent to the cornea and sclera under a microscope. […] The sizes of subretinal neovascular areas were analyzed using Image J software (NIH, USA).

[5] = tested on: vascular leakage; experiment: Oxygen-induced retinopathy (OIR) model, vascular leakage (dextran fluorescence extravasation); assay type: in vivo, C57BL/6 mice; conditions: 10 μg/eye intraocular on P12, evaluated P17; FIG. 11A
Experimental: (§1) Mice burn by crossbreeding of 7- to 8-week old C57BL/6 purchased from Koatech were used as experimental animals. On day 7 after birth, mice (postnatal day 7, P7) were placed in an oxygen chamber, and the oxygen concentration in the chamber was adjusted and maintained at 75% (hyperoxia) for 5 days (P7 to P11). The illumination in the laboratory was turned on or off every 12 hours and the temperature was maintained at 24±2° C. The mice were fed with free access to feed and drinking water. After 5 days, the mice were exposed to inner air (normoxia) out of the chamber for 5 days (P12-P17) to induce retinal angiogenesis. For drug administration, the mice were randomly divided into five groups (10 mice per group) immediately after the exposure to normoxia on P12, as shown in Table 7. Drugs were administered intraocularly at concentrations appropriate for respective groups using Hamilton syringe (Hamilton, USA). The same amount of vehicle was administered to the OIR group, and 10 μg/eye of ranibizumab was administered as control drug. Subjects with surgical damage caused by drug administration or subjects with lens opacities or the like were excluded from subsequent experiment procedures.
The degree of retinal edema was evaluated on day 17 after birth. […] The amount of fluorescence extravasated out of vessels was quantitatively analyzed using Image J.

[6] = tested on: retinal neovascularization; experiment: Oxygen-induced retinopathy (OIR) model, retinal neovascularization (isolectin B4, tufts); assay type: in vivo, C57BL/6 mice; conditions: 10 μg/eye intraocular; FIG. 12B
Experimental: as §1
In addition, the extent of neovascularization in the retina was also evaluated. […]

[7] = half-dose (250 μg) dropped 6 times at 2 hour intervals in rabbits; cited from earlier work
[8] = tested on: macular degeneration; conditions: cited from earlier work
[9] = molecular target: T1, VEGF-A (Homo sapiens, UniProt P15692); conditions: designed property, versus ranibizumab; cited from earlier work
T1 sequence (P15692 207-395): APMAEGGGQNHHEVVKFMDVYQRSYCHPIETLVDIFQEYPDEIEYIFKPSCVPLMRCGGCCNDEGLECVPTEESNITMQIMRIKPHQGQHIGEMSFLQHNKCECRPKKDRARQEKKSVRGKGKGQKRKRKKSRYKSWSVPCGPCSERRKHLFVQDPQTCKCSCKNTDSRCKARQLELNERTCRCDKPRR

[10] = molecular target: neuropilin 1 (NRP 1); experiment: SPR (Biacore 2000) assay of binding ability to neuropilin 1 receptor; conditions: Table 4, receptor NRP 1, read-out: Affinity, KD
Experimental: First, the affinity to a neuropilin receptor was performed on neuropilin 1 (NRP 1). Specifically, surface plasmon resonance (SPR) was performed using Biacore 2000 (GE Healthcare) in order to investigate the binding ability of TPP to the neuropilin 1 domain. Specifically, each neuropilin 1 domain was diluted in 10 mM Na-acetate buffer (pH 4.0), and fixed on CMS sensor chip (GE Healthcare, USA) at about 1,000 response units (RU). […] After the association/dissociation analysis, the CMS chip was regenerated by allowing buffer (20 mM NaOH, 1M NaCl, pH 10.0) to flow at a flow rate of 30 μl/min for 1 minute.
After the Biacore CMS chip was activated with EDC/NHS mixture, target protein NRP1 was diluted in a fixing buffer (10 mM sodium acetate, pH 5.5), and fixed to final 79 Ru through calculation at Rmax: 200.

neuropilin 1 (NRP 1), sequence (O14786 273-586 limits assumed): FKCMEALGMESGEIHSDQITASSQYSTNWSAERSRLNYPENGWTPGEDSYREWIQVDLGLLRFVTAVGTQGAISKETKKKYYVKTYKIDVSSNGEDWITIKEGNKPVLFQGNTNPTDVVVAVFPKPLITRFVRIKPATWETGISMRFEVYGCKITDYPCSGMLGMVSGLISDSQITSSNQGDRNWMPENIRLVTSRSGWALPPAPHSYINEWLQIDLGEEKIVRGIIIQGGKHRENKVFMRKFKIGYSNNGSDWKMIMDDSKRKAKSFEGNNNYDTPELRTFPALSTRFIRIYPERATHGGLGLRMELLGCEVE

conbercept
bioavailability at the time of applying eye drops [1]: less than 5%

ranibizumab
distribution in cross-section of the ocular retinal tissue [2]: mostly present near the sclera | neovessel reducing efficacy, in words [3]: no significant efficacy | inhibition of (neo)vascularization in comparison with the vehicle group [4]: about 31% | vascular leakage compared to the vehicle group [5]: somewhat reduced | degree of neovascularization relative to vehicle group, in words [6]: the same degree of neovascularization | time to reach the retinal tissue after eye drops [7]: 3 to 7 days | patients with macular degeneration showing response ([8]; at the time of development): about 90% | responding patients showing a therapeutic effect, such as eyesight improvement ([8]; human, in vivo): 30%

aflibercept
increase in binding ability to VEGF-A [9]: 100 fold

B1: Sema3A: secreted class 3 semaphorin ligand binding to neuropilin (protein)
chain: NYQNGKNNVPRLKLSYKEMLESNNVITFNGLANSSSYHTFLLDEERSRLYVGAKDHIFSFDLVNIKDFQKIVWPVSYTRRDECKWAGKDILKECANFIKVLKAYNQTHLYACGTGAFHPICTYIEIGHHPEDNIFKLENSHFENGRGKSPYDPKLLTASLLIDGELYSGTAADFMGRDFAIFRTLGHHHPIRTEQHDSRWLNDPKFISAHLISESDNPEDDKVYFFFRENAIDGEHSGKATHARIGQICKNDFGGHRSLVNKWTTFLKARLICSVPGPNGIDTHFDELQDVFLMNFKDPKNPVVYGVFTTSSNIFKGSAVCMYSMSDVRRVFLGPYAHRDGPNYQWVPYQGRVPYPRPGTCPSKTFGGFDSTKDLPDDVITFARSHPAMYNPVFPMNNRPIVIKTDVNYQFTQIVVDRVDAEDGQYDVMFIGTDVGTVLKVVSIPKETWYDLEEVLLEEMTVFREPTAISAMELSTKQQQLYIGSTAGVAQLPLHRCDIYGKACAECCLARDPYCAWDGSACSRYFPTAKRRTRRQDIRNGDPLTHCSDLHHDNHHGHSPEERIIYGVENSSTFLECSPKSQRALVYWQFQRRNEERKEEIRVDDHIIRTDQGLLLRSLQQKDSGNYLCHAVEHGFIQTLLKVTLEVIDTEHLEELLHKDDDGDGSKTKEMSNSMTPSQKVWYRDFMQLINHPNLNTMDEFCEQVWKRDRKQRRQRPGHTPGNSNKWKHLQENKKGRNRRTHEFERAPRSV
Kd [10]: 27.9 nM
